Test results: US10173983B2, “Fungicidal pyridylamidines” (Syngenta Participations AG, priority 2014, dated 2019)

Columns and labels:
Assay type in all cases: in vivo
Phakopsora pachyrhizi = Phakopsora pachyrhizi on soybean, preventive treatment; conditions: 264 h, 1 day preventive, triazole tolerant soybean rust strain, evaluated 11 days after application, compared to untreated, read-out: disease control
Protocol: Phakopsora pachyrhizi on Soybean, Preventive Treatment
The compound activity was tested under 1 day preventive conditions. Soybean plants with a fully enfolded first trifoliate leaf were sprayed with a track sprayer and 50 l/ha spray volume with the test compounds, either solo or in tankmix as shown in the table below. 1 day after application leaf discs were cut from the first trifoliate leaf and placed in multiwell plates on water-agar. 5 leaf discs per treatment where infested with spores of a triazole tolerant soybean rust strain. The multiwell plates where sealed and placed in an incubator 48 h in darkness and 12 h light/dark cycle afterwards. Rust infestation on leaf discs was evaluated visually 11 days after application and average activity calculated in relation to disease severity on untreated check leaf discs.
The following compounds gave at 200 ppm gave at least 80% disease control in this test when compared to untreated control leaf disks under the same conditions, which show extensive disease development: […]

[1] = tested on: Blumeria graminis f. Sp. tritici (Erysiphe graminis f. sp. tritici); test: Blumeria graminis f. sp. tritici / wheat / leaf disc preventative (powdery mildew on wheat); conditions: foliar, wheat leaf segments cv. Kanzler, inoculated 1 day after application, assessed 6-8 days after application, compared to untreated, read-out: disease control
Protocol: Blumeria graminis f. Sp. tritici (Erysiphe graminis f. sp. tritici)/Wheat/Leaf Disc Preventative (Powdery Mildew on Wheat) Wheat leaf segments cv. Kanzler were placed on agar in a multiwell plate (24-well format) and sprayed with the formulated test compound diluted in water. The leaf disks were inoculated by shaking powdery mildew infected plants above the test plates 1 day after application. The inoculated leaf disks were incubated at 20° C. and 60% rh under a light regime of 24 h darkness followed by 12 h light/12 h darkness in a climate chamber and the activity of a compound was assessed as percent disease control compared to untreated when an appropriate level of disease damage appears on untreated check leaf segments (6-8 days after application). The following compounds gave at 200 ppm give at least 80% disease control in this test when compared to untreated control leaf disks under the same conditions, which show extensive disease development: […]

[2] = tested on: Puccinia recondita f. sp. tritici; test: Puccinia recondita f. sp. tritici / wheat / leaf disc preventative (brown rust); conditions: foliar, 168 h, wheat leaf segments cv. Kanzler, inoculated 1 day after application, assessed 7-9 days after application, compared to untreated, read-out: disease control
Protocol: Puccinia recondita f. sp. tritici/Wheat/Leaf Disc Preventative (Brown Rust) Wheat leaf segments cv. Kanzler were placed on agar in multiwell plates (24-well format) and sprayed with the formulated test compound diluted in water. The leaf disks were inoculated with a spore suspension of the fungus 1 day after application. The inoculated leaf segments were incubated at 19° C. and 75% rh under a light regime of 12 h light/12 h darkness in a climate cabinet and the activity of a compound was assessed as percent disease control compared to untreated when an appropriate level of disease damage appears in untreated check leaf segments (7-9 days after application). The following compounds gave at 200 ppm gave at least 80% disease control in this test when compared to untreated control leaf disks under the same conditions, which show extensive disease development: […]

[3] = tested on: Puccinia recondita f. sp. tritici; test: Puccinia recondita f. sp. tritici / wheat / leaf disc curative (brown rust); conditions: foliar, wheat leaf segments cv. Kanzler, compound applied 1 day after inoculation, assessed 6-8 days after application, compared to untreated, read-out: disease control
Protocol: Puccinia recondita f. sp. tritici/Wheat/Leaf Disc Curative (Brown Rust) Wheat leaf segments cv. Kanzler are placed on agar in multiwell plates (24-well format). The leaf segments are inoculated with a spore suspension of the fungus. Plates were stored in darkness at 19° C. and 75% rh. The formulated test compound diluted in water was applied 1 day after inoculation. The leaf segments were incubated at 19° C. and 75% rh under a light regime of 12 h light/12 h darkness in a climate cabinet and the activity of a compound was assessed as percent disease control compared to untreated when an appropriate level of disease damage appears in untreated check leaf segments (6-8 days after application). The following compounds gave at 200 ppm gave at least 80% disease control in this test when compared to untreated control leaf disks under the same conditions, which show extensive disease development: […]

Measured: pest or weed control at 200 ppm

CCCOCC(C)Oc1nc(C)c(/N=C/N(C)CC)cc1Br (stereo in doubt) [Q.002, N′-[5-bromo-2-methyl-6-[(1S)-1-methyl-2-propoxy-ethoxy]-3-pyridyl]-N-ethyl-N-methyl-formamidine]
≥ 80%: all assays above

CCCOCC(C)Oc1nc(C)c(/N=C/N(C)CC)cc1C#N (centres unmarked) [Q.007, N′-[5-cyano-2-methyl-6-(1-methyl-2-propoxy-ethoxy)-3-pyridyl]-N-ethyl-N-methyl-formamidine]
≥ 80%: all assays above

CCCOCC(C)Oc1nc(C)c(N=CN(C)CC)cc1C(F)F (centres unmarked) [Q.009, N′-[5-(difluoromethyl)-2-methyl-6-(1-methyl-2-propoxy-ethoxy)-3-pyridyl]-N-ethyl-N-methyl-formamidine]
≥ 80%: all assays above

CCCOCC(C)Oc1nc(C)c(N=CN(C)CC)cc1OC(F)F (centres unmarked) [Q.010, N′-[5-(difluoromethoxy)-2-methyl-6-(1-methyl-2-propoxy-ethoxy)-3-pyridyl]-N-ethyl-N-methyl-formamidine]
≥ 80%: all assays above

CCCOCC(C)Oc1nc(C)c(N=CN(C)CC)cc1C (centres unmarked) [Q.011, N′-[2,5-dimethyl-6-(1-methyl-2-propoxy-ethoxy)-3-pyridyl]-N-ethyl-N-methyl-formamidine]
≥ 80%: all assays above

CCCOCC(C)Oc1ccc(N=CN(C)CC)c(C)n1 (centres unmarked) [Q.012, N-ethyl-N-methyl-N′-[2-methyl-6-(1-methyl-2-propoxy-ethoxy)-3-pyridyl]formamidine]
≥ 80%: Phakopsora pachyrhizi | [3]

CCCOCC(C)Oc1nc(C)c(/N=C/N(C)CC)cc1Br (centres unmarked) [Q.013, N′-[5-bromo-2-methyl-6-(1-methyl-2-propoxy-ethoxy)-3-pyridyl]-N-ethyl-N-methyl-formamidine]
≥ 80%: all assays above

C=CCOCC(C)Oc1nc(C)c(N=CN(C)CC)cc1Cl (centres unmarked) [Q.014, N′-[6-(2-allyloxy-1-methyl-ethoxy)-5-chloro-2-methyl-3-pyridyl]-N-ethyl-N-methyl-formamidine]
≥ 80%: all assays above

CCCOCC(C)Oc1nc(C)c(/N=C/N(C)CC)cc1Cl (centres unmarked) [Q.015, N′-[5-chloro-2-methyl-6-(1-methyl-2-propoxy-ethoxy)-3-pyridyl]-N-ethyl-N-methyl-formamidine]
≥ 80%: all assays above

C=CCOCC(COC)Oc1nc(C)c(N=CN(C)CC)cc1Br (centres unmarked) [Q.016, N′-[6-[1-(allyloxymethyl)-2-methoxy-ethoxy]-5-bromo-2-methyl-3-pyridyl]-N-ethyl-N-methyl-formamidine]
≥ 80%: all assays above

C=CCOCC(C)Oc1nc(C)c(N=CN(C)CC)cc1C#N (centres unmarked) [Q.017, N′-[6-(2-allyloxy-1-methyl-ethoxy)-5-cyano-2-methyl-3-pyridyl]-N-ethyl-N-methyl-formamidine]
≥ 80%: all assays above

CCCOCC(C)Oc1nc(C)c(N=CN(C)C(C)C)cc1Br (centres unmarked) [Q.018, N′-[5-bromo-2-methyl-6-(1-methyl-2-propoxy-ethoxy)-3-pyridyl]-N-isopropyl-N-methyl-formamidine]
≥ 80%: all assays above

CCCOCC(C)Oc1nc(C)c(/N=C/N(C)CC)cc1C(=O)OC (centres unmarked) [Q.019, Methyl 5-[(E)-[ethyl(methyl)amino]methylene-amino]-6-methyl-2-(1-methyl-2-propoxy-ethoxy)pyridine-3-carboxylate]
≥ 80%: Phakopsora pachyrhizi | [3]

CCN(C)C=Nc1cc(C#N)c(OC(C)COc2cccc(C(F)(F)F)c2)nc1C (centres unmarked) [Q.020, N′-[5-cyano-2-methyl-6-[1-methyl-2-[3-(trifluoromethyl)phenoxy]ethoxy]-3-pyridyl]-N-ethyl-N-methyl-formamidine]
≥ 80%: all assays above

CCN(C)C=Nc1cc(C#N)c(OC(C)COc2ccc(Cl)cc2)nc1C (centres unmarked) [Q.021, N′-[6-[2-(4-chlorophenoxy)-1-methyl-ethoxy]-5-cyano-2-methyl-3-pyridyl]-N-ethyl-N-methyl-formamidine]
≥ 80%: [1] | [2] | [3]

CCN(C)C=Nc1cc(C#N)c(OC(C)COc2ccccc2)nc1C (centres unmarked) [Q.022, N′-[5-cyano-2-methyl-6-(1-methyl-2-phenoxy-ethoxy)-3-pyridyl]-N-ethyl-N-methyl-formamidine]
≥ 80%: [1] | [2] | [3]

CCN(C)C=Nc1cc(Cl)c(OC(C)COc2cccc(C(F)(F)F)c2)nc1C (centres unmarked) [Q.023, N′-[5-chloro-2-methyl-6-[1-methyl-2-[3-(trifluoromethyl)phenoxy]ethoxy]-3-pyridyl]-N-ethyl-N-methyl-formamidine]
≥ 80%: all assays above

CCN(C)C=Nc1cc(Cl)c(OC(C)COc2ccc(Cl)cc2)nc1C (centres unmarked) [Q.024, N′-[5-chloro-6-[2-(4-chlorophenoxy)-1-methyl-ethoxy]-2-methyl-3-pyridyl]-N-ethyl-N-methyl-formamidine]
≥ 80%: all assays above

CCN(C)C=Nc1cc(Cl)c(OC(C)COc2ccccc2)nc1C (centres unmarked) [Q.025, N′-[5-chloro-2-methyl-6-(1-methyl-2-phenoxy-ethoxy)-3-pyridyl]-N-ethyl-N-methyl-formamidine]
≥ 80%: all assays above

CCN(C)C=Nc1cc(Br)c(OC(C)COc2ccc(Cl)cc2)nc1C (centres unmarked) [Q.026, N′-[5-bromo-6-[2-(4-chlorophenoxy)-1-methyl-ethoxy]-2-methyl-3-pyridyl]-N-ethyl-N-methyl-formamidine]
≥ 80%: all assays above

CCN(C)C=Nc1cc(Br)c(OC(C)COc2cccc(C(F)(F)F)c2)nc1C (centres unmarked) [Q.027, N′-[5-bromo-2-methyl-6-[1-methyl-2-[3-(trifluoromethyl)phenoxy]ethoxy]-3-pyridyl]-N-ethyl-N-methyl-formamidine]
≥ 80%: Phakopsora pachyrhizi | [1] | [3]
